Measured values as given in patent US20200383985A1, “Inhibitors of Protease Activated Receptor-2” (Endosome Therapeutics, Inc., priority 2017, published 2020).

Columns and labels:
[1] = tested on: mouse DRG neurons; assay: Patch clamp rheobase of DRG neurons: IBS-D biopsy supernatant-induced hyperexcitability; format: cell-based; details: I-343 10 μM, Dy4 30 μM, PD98059 50 μM
Procedure: An investigation as whether proteases from mucosal biopsies of IBS patients cause a persistent hyperexcitability of nociceptors was conducted by a mechanism that entails endosomal signaling of PAR2. Biopsies of colonic mucosa from patients with diarrhea-predominant IBS (IBS-D) or healthy control (HC) subjects were placed in culture medium (24 h, 37° C.). Mouse DRG neurons were then exposed to biopsy supernatants (30 min, 37° C.) and washed. Rheobase was measured 30 min after washing to assess persistent hyperexcitability. Supernatants of biopsies from IBS-D patients caused a persistent decrease in rheobase, consistent with hyperexcitability, when compared to supernatants from HC subjects (rheobase at 30 min: HC, 78.33±4.41 pA, 12 neurons, supernatant from 4 HC; IBS-D, 54.55±4.74 pA, 11 neurons, supernatant from 4 IBS-D; P<0.05; ANOVA, Tukey's multiple comparisons test) (FIG. 6A, B). I-343 (10 μM), Dy4 (dynamin inhibitor, 30 μM) and PD98059 (MEK1 inhibitor, 50 μM) abolished IBS-D-induced hyperexcitability of nociceptors (FIG. 6A-D).
The Queen's University Human Ethics Committee approved human studies. All subjects gave informed consent. Endoscopic biopsies were obtained from the descending colon of 13 adult IBS-D patients (12 female) diagnosed using ROME III criteria for diarrhea predominant IBS and of 12 health controls. All IBS patients had symptoms greater than 1 year and most were greater than 5 years. Celiac disease was excluded by blood test and patients over 40 years with daily diarrhea were biopsied at the time of colonoscopy to exclude microscopic colitis. […] Biopsies (8 samples per patient) were incubated in 250 μl of RPMI medium containing 10% fetal calf serum, penicillin/streptomycin and gentamicin/amphotericin B (95% O2/5% […], 24 h, 37° C.). Supernatants were stored at −80° C. Supernatants from 4-6 patients were pooled and studied in individual experiments.
DRG innervating the colon (T9-T13) were collected from C57BL/6 mice. Ganglia were digested by incubation in collagenase IV (1 mg/ml, Worthington) and dispase (4 mg/ml, Roche) (10 min, 37° C.). DRG were triturated with a fire-polished Pasteur pipette, and further digested (5 min, 37° C.). Neurons were washed, plated onto laminin- (0.017 mg/ml) and poly-D-lysine- (2 mg/ml) coated glass coverslips, and were maintained in F12 medium containing 10% fetal calf serum, penicillin and streptomycin (95% air, 5% CO2, 16 h, 37° C.) until retrieval for electrophysiological studies.
Small-diameter (<30 pF capacitance) neurons were studied because they display characteristics of nociceptors (Valdez-Morales E. E. et al., Am J Gastroenterol 2013, 108(10): 1634-1643). Changes in excitability were quantified by measuring rheobase. Whole-cell perforated patch-clamp recordings were made using Amphotericin B (240 μg/ml, Sigma Aldrich) in current clamp mode at room temperature. The recording chamber was perfused with external solution at 2 ml/min. Recordings were made using Multiclamp 700B or Axopatch 200B amplifiers, digitized by Digidata 1440A or 1322A, and processed using pClamp 10.1 software (Molecular Devices). Solutions had the composition (mM): pipette—K-gluconate 110, KC130, HEPES 10, MgCl2 1, CaCl2 2; pH 7.25 with 1 M KOH; external—NaCl 140, KCl 5 HEPES 10, glucose 10, MgCl2 1, CaCl2 2; pH to 7.3-7.4 with 3 M NaOH. […] Neurons were also preincubated with trypsin (50 nM, 10 min), NE (390 nM, 30 min), CS (500 nM, 60 min), or vehicle (37° C.), and washed. Rheobase was measured at T 0 or T 30 min after washing. To investigate mechanisms of protease-evoked effects, neurons were incubated with I-343 (100 nM, 300 nM, 10 μM, 30 min preincubation), SCH79797 (1 μM, 10 min), Dy4 (30 μM, 30 min), PS2 (15 μM, 30 min), PD98059 (50 μM, 30 min), GF109203X (10 μM, 30 min), or vehicle (preincubation and inclusion throughout). In experiments using the tripartite antagonist, neurons were preincubated with Compound 10 (30 μM, 60 min, 37° C.) or vehicle and washed. […]

[2] = tested on: colonic afferent neurons; assay: Colonic afferent recordings, CVH mice (28 d post-TNBS); set-up: species or system mouse
Procedure: Transient colitis in mice induces hypersensitivity of colonic afferent neurons that persists after inflammation is resolved (Azpiroz F., et al., Neurogastroenterol Motil. 2007, 19(1 Suppl): 62-88). This chronic visceral hypersensitivity (CVH) may mimic post-infectious/inflammatory IBS. To determine whether proteases can further amplify CVH, mice were treated with trinitrobenzene sulphonic acid (TNBS, enema) to induce colitis. At 28 d post-TNBS, when inflammation is undetectable, mechanical stimulation of the colon induced a larger firing rate in CVH mice than in HC mice, consistent with chronic hyperexcitability (FIG. 21A-D). […] Thus, proteases can still amplify the excitability of colonic nociceptors even when they are already sensitized as a result of prior inflammation. The colon and rectum (5-6 cm) was removed from C57BL/6 mice. Afferent recordings were made from splanchnic nerves as described (Hughes, P. A. et al., Gut 2009, 58(10): 1333-134; Brierley, S. M. et al., Gastroenterology 2004, 127(1): 166-178). Briefly, the intestine was opened and pinned flat, mucosal side up, in an organ bath. […] Action potentials were analyzed using the Spike 2 […] function and discriminated as single units on the basis of distinguishable waveform, amplitude and duration. […]

Molecule	IBS-D-induced hyperexcitability of nociceptors [1]	rheobase of neurons exposed to HC supernatant [1]	further amplification of responses compared to basal, CVH mice [2]
Cc1nc(C(=O)N2CCN(C(=O)c3cn4nc(-c5ccc(F)cc5)cc(C(C)(C)C)c4n3)C(C)(C)C2)n[nH]1 [Compound I-343, (8-(tert-butyl)-6-(4-fluorophenyl)imidazo[1,2-b]pyridazin-2-yl)(2,2-dimethyl-4-(5-methyl-1H-1,2,4-triazole-3-carbonyl)piperazin-1-yl)methanone]	abolished	no effect	–
O=C(N/N=C/c1cc(O)c(O)cc1O)c1cc2ccccc2cc1O [Dy4]	abolished	non-significant decrease	–
NE: protease (elastase) activating PAR2 by biased mechanisms	–	–	30.6±9.0%
trypsin	–	–	16.4±7.9%
